Results reported in article PMC8360000 (Clinical Pharmacology and Therapeutics, 2021).
“And” between values parts separate entries of the source, which are not always exact repeats. Equal values may be shown once.

Key:
P‐gp [1] = experiment: IVIVE of Kp,uu,brain from in vitro ER using REF; set-up: species or system human; conditions: for Kp,uu,brain,pred(method 1) Mean ± SD / Kp,uu,brain,pred(method 1) Individual: predicted from in vitro ER and REF; for Kp,uu,brain,pred(method 1) Mean ± SD: four experiments; for Kp,uu,brain,pred(method 1) Individual: individual experiments 1-4
P-gp = experiment: IVIVE of Kp,uu,brain from in vitro ER using REF; set-up: species or system human; conditions: human, brain (unbound, Kp,uu)
P‐gp [2] = experiment: IVIVE of intrinsic CL and Kp,uu,brain using REF and BMEC protein content; set-up: species or system human; conditions: for Kp,uu,brain,pred(method 2): 5C model
P‐gp [3] = conditions: humans, cyclosporine as inhibitor; cited from earlier work

Kp uu (P-gp)	SMILES	Kp,uu,brain,pred(method 1) Mean ± SD (P‐gp [1])	Kp,uu,brain,pred(method 1) Individual (P‐gp [1])	Kp,uu,brain,pred(method 2) (P‐gp [2]; mean ± standard deviation)	K1 (cerebral uptake CL), impact of P‐gp inhibition (P‐gp [3])	P/O (predicted/observed Kp,uu,brain ratio) (P‐gp [1]; method 1)	IVIV Extrapolated CLi (P‐gp [2]; mean ± standard deviation, scaled with BMEC protein content) [mL/min]	P/O (predicted/observed value) (P‐gp [2]; method 2)
1.3	CCN(CC)CCNC(=O)c1cc(Cl)c(N)cc1OC [Metoclopramide, metoclopramide]	0.74 ± 0.08	0.74 and 0.76 and 0.63 and 0.81	0.61 ± 0.10	not impacted	–	–	–
–	CNC(=O)C(CCN1CCC(O)(c2ccc(Cl)cc2)CC1)(c1ccccc1)c1ccccc1 [N‐desmethyl loperamide]	0.043 ± 0.018	0.058 and 0.035 and 0.056 and 0.021	0.020 ± 0.014	–	0.92	287 ± 88	0.44
